# Reference: US20180311364A1, “Protease Triggered Release Of Molecules From Hydrogels” (The Trustees of the University of Pennsylvania, priority 2010, published 2018)
# Assay: Triggered release of ilomastat from HA-aldehyde / HA-peptide-hydrazide hydrogel
# Format: physicochemical
# Experimental: Ilomastat was ground into a fine powder of uniform microparticles. These microparticles were suspended in the dissolved HA-aldehyde and HA-peptide-hydrazide solutions at 10 μg per 100 μL of polymer solution. At this concentration ilomastat remains a solid particle within the polymer solution. HA-aldehyde and HA-peptide-hydrazide polymers were mixed 1:1 aldehdye:hydrazide to induce crosslinking into a solid gel. The gels were incubated in phosphate buffered saline at 37° C. After 14 days less than 10% of the ilomastat was released from the gels due to hydrophobic interactions of the ilomastat in the microparticles. The gels were then exposed to collagenase 200 U/mL and the gels degraded.
smiles,measurement,setting,value
"CNC(=O)[C@H](Cc1c[nH]c2ccccc12)NC(=O)[C@@H](CC(=O)NO)CC(C)C [ilomastat, Ilomastat]",ilomastat release after gel degradation (HPLC),"gels exposed to collagenase 200 U/mL after 14 days in PBS, gels degraded",solubilized in the larger volume of the buffer
same,ilomastat released from the gels,"gels incubated in phosphate buffered saline at 37° C., after 14 days, ilomastat microparticles 10 μg per 100 μL polymer solution",less than 10%
